Laboratory results: PubChem BioAssay AID1963986 (Molecular Pharmacology Branch, DTP, NCI, 2024)

Test system: 171881-019-R-J1-PDC tumor spheroid viability
Assay: Anticancer human tumor 171881-019-R-J1-PDC patient-derived invasive breast carcinoma cell line growth inhibition [PI3K]
Settings: spheroids with HUVEC and MSC; for IC50: curve of first compound; for viability, T/C: stronger effect = lower value; active = viability on the fitted dose curve at most 10% of control; inactive = the rest
How it was run: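 Spheroid viability read-out. Co-cultures contained the tumor line plus HUVEC and human MSCs. Each agent was paired with a PI3K inhibitor (inavolisib, alpelisib, duvelisib, copanlisib) across half-log dilutions starting at clinical Cmax, or at 10 microM when Cmax was unknown.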
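Note: spheroids exposed to compound for 7 days before viability read.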
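Throughout, for viability, T/C: 100% = DMSO vehicle-treated spheroids.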

CNC(=O)c1ccc(N2C(=S)N(c3ccc(C#N)c(C(F)(F)F)c3)C(=O)C2(C)C)cc1F + Cc1nc(NC(=O)N2CCCC2C(N)=O)sc1-c1ccnc(C(C)(C)C(F)(F)F)c1
> 10000 nM: IC50 (second compound 0.0316 µM) | IC50 (second compound 0.1 µM)
4660 nM: IC50 (second compound 0.316 µM)
< 31.6 nM: IC50 (second compound 1 µM) | IC50 (second compound 3.16 µM) | IC50 (second compound 10 µM)
active: viability, T/C (second compound 10 µM, first compound 0.0316 µM) 3.32% | viability, T/C (second compound 10 µM, first compound 0.1 µM) 3.53% | viability, T/C (second compound 10 µM, first compound 0.316 µM) 3.59% | viability, T/C (second compound 10 µM, first compound 1 µM) 3.51% | viability, T/C (second compound 10 µM, first compound 3.16 µM) 3.82% | viability, T/C (second compound 10 µM, first compound 10 µM) 3.48%
inactive: viability, T/C (second compound 0.0316 µM, first compound 0.0316 µM) 90.4% | viability, T/C (second compound 0.0316 µM, first compound 0.1 µM) 81.5% | viability, T/C (second compound 0.0316 µM, first compound 0.316 µM) 84.4% | viability, T/C (second compound 0.0316 µM, first compound 1 µM) 87.7% | viability, T/C (second compound 0.0316 µM, first compound 3.16 µM) 86% | viability, T/C (second compound 0.0316 µM, first compound 10 µM) 69.7% | viability, T/C (second compound 0.1 µM, first compound 0.0316 µM) 79% | viability, T/C (second compound 0.1 µM, first compound 0.1 µM) 77% | viability, T/C (second compound 0.1 µM, first compound 0.316 µM) 82.9% | viability, T/C (second compound 0.1 µM, first compound 1 µM) 66.4% | viability, T/C (second compound 0.1 µM, first compound 3.16 µM) 74.6% | viability, T/C (second compound 0.1 µM, first compound 10 µM) 66.1% | viability, T/C (second compound 0.316 µM, first compound 0.0316 µM) 58.6% | viability, T/C (second compound 0.316 µM, first compound 0.1 µM) 50.2% | viability, T/C (second compound 0.316 µM, first compound 0.316 µM) 50.3% | viability, T/C (second compound 0.316 µM, first compound 1 µM) 52.5% | viability, T/C (second compound 0.316 µM, first compound 3.16 µM) 57.2% | viability, T/C (second compound 0.316 µM, first compound 10 µM) 45.1% | viability, T/C (second compound 1 µM, first compound 0.0316 µM) 31.2% | viability, T/C (second compound 1 µM, first compound 0.1 µM) 31.1% | viability, T/C (second compound 1 µM, first compound 0.316 µM) 31.8% | viability, T/C (second compound 1 µM, first compound 1 µM) 30.9% | viability, T/C (second compound 1 µM, first compound 3.16 µM) 32.7% | viability, T/C (second compound 1 µM, first compound 10 µM) 27.7% | viability, T/C (second compound 3.16 µM, first compound 0.0316 µM) 13.2% | viability, T/C (second compound 3.16 µM, first compound 0.1 µM) 12.7% | viability, T/C (second compound 3.16 µM, first compound 0.316 µM) 13.1% | viability, T/C (second compound 3.16 µM, first compound 1 µM) 12.6% | viability, T/C (second compound 3.16 µM, first compound 3.16 µM) 12.5% | viability, T/C (second compound 3.16 µM, first compound 10 µM) 11.1%

Cn1cnc2c(F)c(Nc3ccc(Br)cc3Cl)c(C(=O)NOCCO)cc21 + Cc1nc(NC(=O)N2CCCC2C(N)=O)sc1-c1ccnc(C(C)(C)C(F)(F)F)c1
inactive: viability, T/C (second compound 0.0316 µM, first compound 0.00949 µM) 92.1% | viability, T/C (second compound 0.0316 µM, first compound 0.03 µM) 78.9% | viability, T/C (second compound 0.0316 µM, first compound 0.0949 µM) 71.5% | viability, T/C (second compound 0.0316 µM, first compound 0.3 µM) 58.5% | viability, T/C (second compound 0.0316 µM, first compound 0.949 µM) 35.9% | viability, T/C (second compound 0.0316 µM, first compound 3 µM) 16% | viability, T/C (second compound 0.1 µM, first compound 0.00949 µM) 73.9% | viability, T/C (second compound 0.1 µM, first compound 0.03 µM) 59% | viability, T/C (second compound 0.1 µM, first compound 0.0949 µM) 50.3% | viability, T/C (second compound 0.1 µM, first compound 0.3 µM) 41.8% | viability, T/C (second compound 0.1 µM, first compound 0.949 µM) 26.8% | viability, T/C (second compound 0.1 µM, first compound 3 µM) 12.4% | viability, T/C (second compound 0.316 µM, first compound 0.00949 µM) 45.7% | viability, T/C (second compound 0.316 µM, first compound 0.03 µM) 38.8% | viability, T/C (second compound 0.316 µM, first compound 0.0949 µM) 33.3% | viability, T/C (second compound 0.316 µM, first compound 0.3 µM) 28.6% | viability, T/C (second compound 0.316 µM, first compound 0.949 µM) 15.1% | viability, T/C (second compound 1 µM, first compound 0.00949 µM) 28.8% | viability, T/C (second compound 1 µM, first compound 0.03 µM) 23.3% | viability, T/C (second compound 1 µM, first compound 0.0949 µM) 19.9% | viability, T/C (second compound 1 µM, first compound 0.3 µM) 15.1% | viability, T/C (second compound 3.16 µM, first compound 0.00949 µM) 11.5%
105 nM: IC50 (second compound 0.1 µM)
437 nM: IC50 (second compound 0.0316 µM)
active: viability, T/C (second compound 0.316 µM, first compound 3 µM) 5.7% | viability, T/C (second compound 1 µM, first compound 0.949 µM) 6.73% | viability, T/C (second compound 1 µM, first compound 3 µM) 2.34% | viability, T/C (second compound 3.16 µM, first compound 0.03 µM) 9.26% | viability, T/C (second compound 3.16 µM, first compound 0.0949 µM) 7.86% | viability, T/C (second compound 3.16 µM, first compound 0.3 µM) 5.01% | viability, T/C (second compound 3.16 µM, first compound 0.949 µM) 1.92% | viability, T/C (second compound 3.16 µM, first compound 3 µM) 0.87% | viability, T/C (second compound 10 µM, first compound 0.00949 µM) 2.26% | viability, T/C (second compound 10 µM, first compound 0.03 µM) 2.27% | viability, T/C (second compound 10 µM, first compound 0.0949 µM) 1.71% | viability, T/C (second compound 10 µM, first compound 0.3 µM) 0.92% | viability, T/C (second compound 10 µM, first compound 0.949 µM) 0.78% | viability, T/C (second compound 10 µM, first compound 3 µM) 0.48%
< 9.49 nM: IC50 (second compound 0.316 µM) | IC50 (second compound 1 µM) | IC50 (second compound 3.16 µM) | IC50 (second compound 10 µM)
